Measurements from patent US8445006B2, “Biomolecular coating for implants” (Georgia Tech Research Corporation, priority 2006, dated 2013).

Tests used:
[1] = test system: bone marrow stromal cells; assay: Alkaline phosphatase biochemical activity assay; assay type: cell-based, rat
Procedure: Primary bone marrow stromal cells were harvested from the femora of young adult male Wistar rats in accordance with an IACUC-approved protocol. After excision, hindleg femora and tibiae were cleared of soft tissue and rinsed in growth medium (α-minimal essential medium supplemented with 10% fetal bovine serum, 1% penicillin-streptomycin, and 0.3 μg/ml amphotericin B). The ends of the long bones were then removed and the marrow space was flushed with culture medium (3-5 ml), using a syringe with an 18-gauge needle. Marrow isolates were pooled, centrifuged, resuspended in growth medium, and seeded for adhesion-dependent selection on tissue culture polystyrene dishes. Non-adherent hematopoietic cells were removed during subsequent medium exchanges, which occurred every other day. Cells were subcultured every two days according to standard techniques. For in vitro osteogenic assays, cells were seeded at 10,000 cells/cm^2 in growth medium. […]
ALP activity was quantified at 7 days in culture using a modification of the Sodek and Berkman method. […] After sonication and centrifugation, the protein concentration was quantified using a Pierce Micro BCA protein assay kit. […] After a 60 min incubation at 37° C., the fluorescence was read at an excitation of 360 nm and an emission of 465 nm on an HTS 7000 Plus BioAssay Reader (Perkin Elmer). […]

FAK = FAK phosphorylation Western blotting on ligand-tethered SAMs; assay type: cell-based, murine
Procedure: Cells were detached and gently agitated in serum-free suspension for 45 min to reduce background. Cells were then seeded at 200 cells/mm^2 serum-free for 1 h. Cells were lysed in RIPA buffer (1% Triton X-100, 1% sodium deoxycholate, 0.1% SDS, 150 mM NaCl, 150 mM Tris-HCl (pH 7.2), 350 μg/ml PMSF, 10 μg/ml leupeptin, and 10 μg/ml aprotonin) for 20 min on ice. Samples were pipetted up and down 20 times and centrifuged at 8000 g for 10 min to shear DNA and isolate protein contents. Total protein was quantified using micro-BCA (Pierce). Equal amounts of protein were boiled for 10 min in Laemmli buffer and separated by SDS-PAGE on a 7% gel, transferred to nitrocellulose membranes, and blocked with Blotto (5% nonfat dry milk, 0.20% Tween-20) overnight at 4° C. Membranes were gently rocked in antibodies against FAK and specific phosphorylated FAK tyrosine residues (anti-total FAK at 1 μg/ml, anti-FAK pY397 at 0.35 μg/ml, anti-FAK pY576 at 0.5 μg/ml) for 1 h. After washing with TBS-Tween (20 mM Tris HCl pH 7.6, 137 mM NaCl, 0.1% Tween-20), secondary antibody (biotin-conjugated anti-rabbit IgG; 1:20,000) was added for 1 h, followed by alkaline phosphatase-conjugated anti-biotin antibody (1:10,000) in Blotto. Immunoreactivity was assessed by ECF fluorescent substrate. FAK bands were visualized by a Fuji Image Analyzer and phosphorylation levels normalized to total FAK.

osteoblastic cells = assay: In vitro bioresistance and adhesive capacity of poly(OEGMA) brushes on titanium; assay type: cell-based; details: serum-containing media, osteoblastic cells 1 h
Procedure: Surfaces were incubated in serum-containing media for various times and subsequently challenged with osteoblastic cells for 1 h.

α5β1 integrin = assay: Integrin binding by cross-linking/extraction/reversal technique; assay type: cell-based, rat; details: equimolar tethered brushes; vs RGD-tethered brushes and serum-exposed titanium
Procedure: (§1) In vitro evaluation of these engineered titanium surfaces was performed using primary rat bone marrow stromal cells since this heterogeneous population contains osteoprogenitors, and human bone marrow stromal cells are currently used in clinical applications. Cell adhesion was examined using a centrifugation assay that applies a controlled detachment force. To allow direct comparisons between ligand-tethered surfaces, an equimolar ligand density of 0.9 pmol/cm^2 was used; this value represents the highest ligand density that could be ascribed for both surfaces to be equimolar. […] As a complementary test of integrin specificity, integrin binding was quantified using a biochemical cross-linking/extraction/reversal technique.

[2] = test system: bone marrow stromal cells; assay: Centrifugation cell adhesion assay on titanium surfaces; assay type: cell-based, rat; details: for stromal cell adhesion (adherent cell fraction): 1 h serum-free, centrifugation 12 g, no antibody, adsorbed on Ti at 20 μg/ml
Procedure: Primary bone marrow stromal cells were harvested from the femora of young adult male Wistar rats in accordance with an IACUC-approved protocol. After excision, hindleg femora and tibiae were cleared of soft tissue and rinsed in growth medium (α-minimal essential medium supplemented with 10% fetal bovine serum, 1% penicillin-streptomycin, and 0.3 μg/ml amphotericin B). The ends of the long bones were then removed and the marrow space was flushed with culture medium (3-5 ml), using a syringe with an 18-gauge needle. Marrow isolates were pooled, centrifuged, resuspended in growth medium, and seeded for adhesion-dependent selection on tissue culture polystyrene dishes. Non-adherent hematopoietic cells were removed during subsequent medium exchanges, which occurred every other day. Cells were subcultured every two days according to standard techniques. For in vitro osteogenic assays, cells were seeded at 10,000 cells/cm^2 in growth medium. After 24 h, cultures were maintained in osteogenic medium consisting of growth medium supplemented with 50 μg/ml L-ascorbic acid and 3 mM sodium β-glycerophosphate.
The peptide […](GPP)5GFOGER(GPP)5GPC (SEQ ID NO:1) [O=hydroxyproline] was prepared by the Emory University Microchemical Facility using solid phase t-Boc synthesis. Peptide was supplied in the purified form as a trifluoroacetic acid (TFA) salt and reconstituted at a stock concentration of 10 mg/ml in 0.1% TFA. For the in vitro assays, glass chamber slides (16-well Lab-Tek Chamber Slides, Nalge Nunc) or tissue culture-treated polystyrene dishes were coated with 300 Å of pure titanium using an electron beam evaporator at a chamber base pressure between 1-2×10^−6 torr with a deposition rate of 1.5 Å/second. The GFOGER peptide (SEQ ID NO:1) was diluted to 20 μg/ml in Dulbecco's phosphate-buffered saline (PBS) and incubated on the titanium surfaces for 1 h at 22° C.
Cell adhesion to functionalized and untreated titanium surfaces was measured using a centrifugation assay that applies controlled detachment forces. Titanium-coated glass chamber slide wells were reassembled using a silicone-based adhesive and coated with 20 μg/ml GFOGER peptide (SEQ ID NO:1) or 20 μg/ml GRGDSPC (SEQ ID NO:3) peptide (BACHEM). Control titanium slides were coated with 10% FBS (to model serum protein adsorption) or blocking buffer (5% non-fat dry milk in PBS to produce a non adhesive support). […] Initial fluorescence intensity was measured to quantify the number of adherent cells prior to application of centrifugal force. […] After centrifugation, media was exchanged and fluorescence intensity was read to measure remaining adherent cells. For each well, adherent cell fraction was calculated as the ratio of post-spin to pre-spin fluorescence readings. […]

αvβ3 integrin = assay: Integrin binding by cross-linking/extraction/reversal technique; assay type: cell-based, rat; details: equimolar tethered brushes; vs FNIII7-10 support
Procedure: as §1

Row | Substance | alkaline phosphatase activity ([1]; tethered brushes vs RGD-functionalized surfaces) | FAK tyrosine-861 phosphorylation (FAK; among both peptide-tethered surfaces) | FAK tyrosine-397 phosphorylation (FAK; maximum peptide densities, vs RGD-tethered surface) | FAK tyrosine-576 phosphorylation (FAK; vs RGD-functionalized support) | cell adhesion on ligand-presenting poly(OEGMA) brushes (osteoblastic cells) | bound α5β1 integrin (α5β1 integrin) | cell adhesion with blocking anti-α2 antibody ([2]; 20 μg/ml anti-rat α2 antibody) | cell adhesion with function-perturbing anti-αv antibody ([2]; 20 μg/ml anti-rat αv antibody) | stromal cell adhesion (adherent cell fraction) [2] | ALP activity ([1]; 7 days, adsorbed coating vs untreated titanium) | bound αvβ3 integrin (αvβ3 integrin)
1 | FNIII7-10: monobiotinylated recombinant fibronectin fragment spanning the 7-10th type III repeats of fibronectin; α5β1 integrin ligand | higher alkaline phosphatase activity | phosphorylated at similar levels | increased almost threefold | significantly higher | comparable to the unmodified titanium | significantly higher levels of bound α5β1 integrin |  |  |  |  | 
2 | GGYGGGPC(GPP)5GFOGER(GPP)5GPC [GFOGER peptide] |  |  |  |  |  |  | completely eliminated cell adhesion | had no effect on adhesion | greater stromal cell adhesion | elevated levels of activation | 
3 | GRGDSPC [RGD peptide, linear RGD oligopeptide purchased from BACHEM; primarily supports αvβ3-mediated adhesion, reference compound] |  |  |  |  | comparable to the unmodified titanium |  |  |  | equivalent to background levels |  | higher levels of bound αvμ3
